ChEMBL document CHEMBL1833942, “6-arylcoumarins as novel nonsteroidal type progesterone antagonists: an example with receptor-binding-dependent fluorescence” (J Med Chem, 2011)
Activity calls are given as the source filed them. No cut-off for these calls is given here.

How the values were obtained:
[1] = target: T1, Progesterone receptor (Homo sapiens, UniProt P06401); assay: Antagonist activity at human progesterone receptor in T47D cells after 24 hrs by alkaline phosphatase assay; format: functional, cell-based
T1 sequence (P06401 whole entry): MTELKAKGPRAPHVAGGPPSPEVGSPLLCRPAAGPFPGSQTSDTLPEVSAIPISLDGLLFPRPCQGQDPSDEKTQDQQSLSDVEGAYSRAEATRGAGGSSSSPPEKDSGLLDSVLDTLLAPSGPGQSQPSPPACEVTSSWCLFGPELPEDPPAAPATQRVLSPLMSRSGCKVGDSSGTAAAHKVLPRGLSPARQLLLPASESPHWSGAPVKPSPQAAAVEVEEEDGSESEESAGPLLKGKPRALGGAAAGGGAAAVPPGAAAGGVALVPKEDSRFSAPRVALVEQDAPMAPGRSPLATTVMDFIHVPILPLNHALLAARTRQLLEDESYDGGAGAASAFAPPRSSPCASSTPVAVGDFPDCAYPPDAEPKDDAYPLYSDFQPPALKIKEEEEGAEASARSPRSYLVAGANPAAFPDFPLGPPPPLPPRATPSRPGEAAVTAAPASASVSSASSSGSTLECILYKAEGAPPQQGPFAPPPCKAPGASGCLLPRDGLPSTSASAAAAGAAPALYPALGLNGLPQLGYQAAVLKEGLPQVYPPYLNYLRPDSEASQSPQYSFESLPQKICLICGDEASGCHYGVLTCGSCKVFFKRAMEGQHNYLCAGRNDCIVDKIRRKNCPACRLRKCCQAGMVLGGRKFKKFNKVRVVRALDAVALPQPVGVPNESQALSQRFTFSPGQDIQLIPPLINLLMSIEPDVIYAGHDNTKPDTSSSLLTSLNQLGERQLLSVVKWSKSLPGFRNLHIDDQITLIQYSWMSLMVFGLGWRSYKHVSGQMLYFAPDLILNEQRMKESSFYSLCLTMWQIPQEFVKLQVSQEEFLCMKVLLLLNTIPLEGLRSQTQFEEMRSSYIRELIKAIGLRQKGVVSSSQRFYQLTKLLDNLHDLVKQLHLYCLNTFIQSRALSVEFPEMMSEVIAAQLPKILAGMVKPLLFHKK

[2] = target: T2, Progesterone receptor (Homo sapiens) (UniProt P06401); assay: Antagonist activity at human progesterone receptor expressed in CHO cells at 10^-6 M after 24 hrs by luciferase reporter gene assay; format: functional, cell-based
T2 sequence (whole entry): T1 sequence (P06401 whole entry)

[3] = target: T2, Progesterone receptor (Homo sapiens); assay: Antagonist activity at human progesterone receptor expressed in CHO cells at 10^-5 M after 24 hrs by luciferase reporter gene assay; format: functional, cell-based
[4] = target: T1, Progesterone receptor; assay: Displacement of [1,2,6,7-3H]PG from human PR-LBD after 24 hrs by liquid scintillation counting
[5] = target: T2, Progesterone receptor (Homo sapiens); assay: Antagonist activity at human progesterone receptor expressed in CHO cells at 10^-7 M after 24 hrs by luciferase reporter gene assay; format: functional, cell-based
[6] = target: T3, Androgen receptor (Homo sapiens, UniProt P10275); assay: Displacement of [3H]DHT from human recombinant androgen receptor-LBD expressed in Escherichia coli after 18 hrs by liquid scintillation counting
T3 sequence (P10275 whole entry): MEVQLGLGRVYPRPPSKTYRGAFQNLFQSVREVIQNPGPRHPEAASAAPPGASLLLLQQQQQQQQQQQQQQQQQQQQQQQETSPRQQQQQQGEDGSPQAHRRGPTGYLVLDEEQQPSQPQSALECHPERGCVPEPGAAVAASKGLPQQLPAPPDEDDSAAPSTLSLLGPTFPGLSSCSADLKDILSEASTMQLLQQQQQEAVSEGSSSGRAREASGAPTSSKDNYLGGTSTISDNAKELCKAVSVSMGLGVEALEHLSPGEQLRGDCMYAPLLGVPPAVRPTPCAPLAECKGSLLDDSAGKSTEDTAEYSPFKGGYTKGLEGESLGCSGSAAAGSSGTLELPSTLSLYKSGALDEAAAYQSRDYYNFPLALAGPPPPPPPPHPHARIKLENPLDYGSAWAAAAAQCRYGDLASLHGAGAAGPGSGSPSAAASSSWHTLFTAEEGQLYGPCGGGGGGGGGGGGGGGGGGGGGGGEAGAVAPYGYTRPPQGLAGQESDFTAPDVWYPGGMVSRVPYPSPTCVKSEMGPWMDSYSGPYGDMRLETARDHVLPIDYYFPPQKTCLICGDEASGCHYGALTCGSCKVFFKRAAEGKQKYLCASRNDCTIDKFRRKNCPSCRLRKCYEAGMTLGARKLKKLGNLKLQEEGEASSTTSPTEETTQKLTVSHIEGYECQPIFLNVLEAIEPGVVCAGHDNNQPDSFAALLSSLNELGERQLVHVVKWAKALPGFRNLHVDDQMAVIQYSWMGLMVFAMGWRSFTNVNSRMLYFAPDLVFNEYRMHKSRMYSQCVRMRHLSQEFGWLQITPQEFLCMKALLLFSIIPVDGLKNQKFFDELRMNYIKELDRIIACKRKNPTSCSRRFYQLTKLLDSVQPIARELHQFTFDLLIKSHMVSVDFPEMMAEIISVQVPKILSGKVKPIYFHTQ

[7] = target: T4, Glucocorticoid receptor (Homo sapiens, UniProt P04150); assay: Displacement of [3H]-dexamethasone from human recombinant glucocorticoid receptor after 18 hrs by liquid scintillation counting
T4 sequence (P04150 whole entry): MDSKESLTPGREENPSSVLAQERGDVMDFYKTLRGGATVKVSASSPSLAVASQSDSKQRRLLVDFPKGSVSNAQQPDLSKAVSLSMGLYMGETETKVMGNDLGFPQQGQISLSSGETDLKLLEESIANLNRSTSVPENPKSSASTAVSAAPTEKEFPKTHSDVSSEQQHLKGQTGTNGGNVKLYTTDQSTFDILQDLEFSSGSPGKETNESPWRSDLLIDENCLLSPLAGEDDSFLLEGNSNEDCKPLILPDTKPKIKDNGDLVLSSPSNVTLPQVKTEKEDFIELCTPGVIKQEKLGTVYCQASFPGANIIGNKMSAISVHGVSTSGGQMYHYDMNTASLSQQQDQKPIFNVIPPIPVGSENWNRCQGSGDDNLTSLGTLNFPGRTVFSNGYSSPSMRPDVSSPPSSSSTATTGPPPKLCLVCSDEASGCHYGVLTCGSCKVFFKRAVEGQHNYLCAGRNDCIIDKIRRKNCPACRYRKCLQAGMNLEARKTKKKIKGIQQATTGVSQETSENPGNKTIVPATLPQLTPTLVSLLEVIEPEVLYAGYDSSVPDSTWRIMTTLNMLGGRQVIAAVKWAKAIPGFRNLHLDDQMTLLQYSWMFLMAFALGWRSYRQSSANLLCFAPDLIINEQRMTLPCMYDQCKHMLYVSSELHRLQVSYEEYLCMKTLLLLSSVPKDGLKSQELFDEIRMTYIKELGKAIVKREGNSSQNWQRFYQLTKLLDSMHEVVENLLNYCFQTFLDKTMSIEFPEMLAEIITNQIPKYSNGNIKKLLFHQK

[8] = target: T2, Progesterone receptor (Homo sapiens); assay: Binding affinity to human PR LBD by fluorescence assay in presence of progesterone
[9] = target: T5, Estrogen receptor (Homo sapiens) (UniProt P03372); assay: Binding affinity at human estrogen receptor by fluorescence assay
T5 sequence (whole entry): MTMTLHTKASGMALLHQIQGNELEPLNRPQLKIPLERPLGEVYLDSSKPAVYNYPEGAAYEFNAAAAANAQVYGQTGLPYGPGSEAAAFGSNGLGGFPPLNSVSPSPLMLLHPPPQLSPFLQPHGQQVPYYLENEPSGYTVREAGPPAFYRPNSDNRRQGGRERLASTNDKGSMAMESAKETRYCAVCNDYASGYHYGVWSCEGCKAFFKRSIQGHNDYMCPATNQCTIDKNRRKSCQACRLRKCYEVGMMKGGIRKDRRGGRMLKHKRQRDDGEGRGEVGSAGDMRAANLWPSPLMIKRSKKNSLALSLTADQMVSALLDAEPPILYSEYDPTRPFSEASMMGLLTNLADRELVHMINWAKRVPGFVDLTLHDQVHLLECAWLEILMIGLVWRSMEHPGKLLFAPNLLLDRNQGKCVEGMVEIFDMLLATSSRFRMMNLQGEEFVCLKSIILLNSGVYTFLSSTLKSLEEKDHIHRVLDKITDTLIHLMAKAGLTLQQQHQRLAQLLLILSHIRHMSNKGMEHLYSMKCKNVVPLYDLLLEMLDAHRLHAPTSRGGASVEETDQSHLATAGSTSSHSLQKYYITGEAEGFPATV

[10] = target: T2, Progesterone receptor (Homo sapiens); assay: Binding affinity to human PR LBD by fluorescence assay

Row | Structure (SMILES) | IC50 [1] | also measured
1 | O=c1ccc2cc(-c3ccc(F)cc3)ccc2o1 | 0.21 µM | –
2 | O=c1ccc2cc(-c3cccs3)ccc2o1 | 0.54 µM | Activity [2]: Active; Activity [3]: Active; IC50 [4]: 10 µM; Activity [5]: Active
3 | O=c1ccc2cc(-c3ccco3)ccc2o1 | 1.28 µM | –
4 | O=c1ccc2cc(-c3cccc(C(F)(F)F)c3)ccc2o1 | 0.19 µM | –
5 | O=c1ccc2cc(-c3cccc(-c4cccnc4)c3)ccc2o1 | 27.9 µM | –
6 | COc1cc2oc(=O)ccc2cc1-c1ccccc1 | 0.88 µM | –
7 | N#Cc1cccc(-c2ccc3oc(=O)ccc3c2)c1 | 1.11 µM | –
8 | CN(C)c1ccc(-c2cc3ccc(=O)oc3cc2O)cc1 | 2.59 µM | –
9 | O=c1ccc2cc(-c3ccccc3)c(O)cc2o1 | 1.28 µM | –
10 | COc1cc2oc(=O)ccc2cc1-c1ccc(N(C)C)cc1 | 3.34 µM | –
11 | O=c1ccc2cc(-c3ccccc3)ccc2o1 | 0.51 µM | –
12 | Cn1c(C#N)ccc1-c1ccc2oc(=O)ccc2c1 | 0.065 µM | Activity [2]: Active; Activity [3]: Active; IC50 [4]: 15.2 µM; Activity [5]: Active
13 | CN(C)c1ccc(-c2ccc3oc(=O)ccc3c2)cc1 | 0.31 µM | –
14 | O=c1ccc2cc(-c3cc(F)cc(F)c3)ccc2o1 | 0.56 µM | –
15 | O=c1ccc2cc(-c3ccc(Cl)s3)ccc2o1 | 0.12 µM | Activity [2]: Active; Activity [3]: Active; IC50 [4]: 50.5 µM; Activity [5]: Active
16 | N#Cc1ccc(-c2ccc3oc(=O)ccc3c2)cc1 | 0.29 µM | –

More lines, main results first:

Row | IC50 [1] | Structure (SMILES) | also measured
17 | 0.5 µM | CCN(CC)c1cc2oc(=O)ccc2cc1-c1ccc(C#N)cc1 | –
18 | 0.47 µM | CCN(CC)c1cc2oc(=O)ccc2cc1-c1ccc(NC(C)=O)cc1 | –
19 | 0.26 µM | CN(C)c1cc2oc(=O)ccc2cc1-c1cccc(C#N)c1 | –
20 | 0.47 µM | CN(C)c1cc2oc(=O)ccc2cc1-c1ccc(F)cc1 | –
21 | 0.4 µM | CCN(CC)c1cc2oc(=O)ccc2cc1-c1ccc(C(C)=O)cc1 | –
22 | 0.36 µM | CN(C)c1cc2oc(=O)ccc2cc1-c1ccccc1 | –
23 | 0.22 µM | CCN(CC)c1cc2oc(=O)ccc2cc1-c1cccs1 | IC50 [6]: 9.7 µM; Activity [2]: Active; Activity [3]: Active; IC50 [4]: 1.24 µM; IC50 [7]: 4.96 µM; Activity [5]: Active
24 | 0.51 µM | CCN(CC)c1cc2oc(=O)ccc2cc1-c1ccc(N)c([N+](=O)[O-])c1 | –
25 | 0.25 µM | CN(C)c1cc2oc(=O)ccc2cc1-c1ccc(C#N)cc1 | –
26 | 0.38 µM | CCN(CC)c1cc2oc(=O)ccc2cc1-c1cccc(C#N)c1 | –
27 | 0.77 µM | CCN(CC)c1cc2oc(=O)ccc2cc1-c1ccc(Cl)cc1 | –
28 | 0.63 µM | CCN(CC)c1cc2oc(=O)ccc2cc1-c1ccc(F)cc1 | –
29 | 4.07 µM | CCOC(=O)c1cc2cc(-c3ccccc3)c(N(CC)CC)cc2oc1=O | –
30 | 0.86 µM | CCN(CC)c1cc2oc(=O)ccc2cc1-c1ccc([N+](=O)[O-])cc1 | –
31 | 0.39 µM | CCN(CC)c1cc2oc(=O)ccc2cc1-c1ccc(N(C)C)cc1 | –
32 | 0.5 µM | CCN(CC)c1cc2oc(=O)ccc2cc1-c1ccccc1 | IC50 [6]: 10 µM; Activity [2]: Active; Activity [8]: inactive; Activity [3]: Active; IC50 [4]: 1.42 µM; Activity [9]: inactive; Activity [10]: Active; IC50 [7]: 3.54 µM; Activity [5]: Active
